Laboratory results from patent US9718771B2, “Aniline derivative, pharmaceutical composition containing same, and use thereof” (Kissei Pharmaceutical Co., Ltd., priority 2014, dated 2017).
pIC50: −log10 of the molar value.

Target: human S1P1 (EDG-1) (Homo sapiens (Human), UniProt P21453)
Test: Confirmation test of antagonistic activity for human S1P1 receptor (35S-GTP binding, cell membranes)
Assay type: biochemical
Conditions: inhibition of 35S-GTP binding induced by S1P1 receptor selective agonist; HEK293 membranes expressing human S1P1
Experimental: Confirmation Test of Antagonistic Activity for Human S1P1 Receptor
Test compounds were tested by reduction of functional binding activity of ^35S-GTP (guanosine 5′-O-[gamma-thio] triphosphate, PerkinElmer) to G protein using cell membranes expressing human S1P1 (EDG-1). S1P1-pcDNA3.1/V5-His-Topo vector was prepared by inserting cDNA (NM_001400) encoding human S1P1 into the expression vector, pcDNA3.1/V5-His-Topo (registered trademark) (Invitrogen). Next, the above S1P1-pcDNA3.1 vector was transfected into HEK293 cells by Lipofectamine2000 (registered trademark) (Invitrogen). The transfected cells were incubated with D-MEM liquid medium each containing 10% FBS (Fetal bovine serum), 100 U/mL penicillin, 100 μg/mL streptomycin and 1 mg/mL Geneticin (registered trademark) (Invitrogen) in an incubator under the condition of 5% CO2 at 37° C. and Geneticin (registered mark)-resistant cell line stably expressing S1P1 were obtained. The obtained stably S1P1-expressing cells were incubated with D-MEM liquid medium each containing 10% FBS and 0.5 mg/mL Geneticin (registered trademark) in an incubator under the condition of 5% CO2 at 37° C. The cells grown to confluence were harvested by a buffer solution containing 50 mM Tris, 2 mM EDTA (ethylmediaminetetraacetic acid) and 125 mM sodium chloride, and centrifuged at 1880×g, 4° C. for 10 minutes. After a supernatant was removed, a cell pellet was resuspended by the same buffer solution. For making cell membranes fragile, this cell suspension was frozen at −80° C. and then thawed. The cells were centrifuged at 1880×g, 4° C. for 10 minutes, and a supernatant was removed. The cell pellet was suspended by adding the same buffer solution and a fracture solution (10 mM sodium bicarbonate and 5 mM EDTA, pH 7.5) at a ratio of 2:1. The cells were fractured by subjecting the cell suspension to ultrasonication, and a cell membrane fraction was isolated by centrifugation at 1880×g, 4° C. for 10 minutes and ultracentrifugation of the supernatant at 80000×g, 4° C. for 30 minutes. A pellet of the cell membrane fraction was suspended by the fracture solution containing protease inhibitor cocktail (Roche) and stored at −80° C. until use. A protein concentration of the cell membrane fraction was determined using BCA Protein Assay Kit (Pierce) in accordance with an attached protocol.
Inhibitory activity evaluation was performed by multi-screen (registered trademark) HTS 96-well plate (Millipore) using the cell membrane fraction stably expressing S1P1 obtained by the above operation. 25 μL of assay solution (50 mM Tris, 100 mM sodium chloride, 5 mM magnesium chloride, 1 mM EDTA, 1 mM DTT (dithiothreitol), 10 μM GDP (guanosine diphosphate) and 0.5% BSA (bovine serum albumin), pH 7.4), 25 μL of test compounds solution diluted by assay solution and 25 μL of the membrane fraction (0.2 μg protein/μL) were added to each well, and the mixture was gently shaken at room temperature: for 30 minutes. Then, 25 μL of ^35S-GTP, and 25 μL of 50 nM S1P1 receptor selective agonist (1-[4-(4-phenyl-5-trifluoromethylthiophen-2-ylmethoxy)benzyl]azetidine-3-carboxylic acid, “J. Med. Chem.”, 2004, vol. 47, pp. 6662-6665, compound 18) were added to each well, respectively, and it was reacted at room temperature for 60 minutes. After the reaction, a reaction solution of each well was suction-filtered. After suction filtration, ice-colded wash solution (50 mM Tris, 100 mM sodium chloride, […] and 1 mM EDTA, pH 7.4) was added to each well, and moreover filters were washed by suction filtration. This wash procedure was performed three times. A bottom of the plate containing the filters was dried at 60° C. After drying, 30 μL of MicroScinti-40 (PerkinElmer) was added to each well, and the radioactivity adsorbed on the filter was determined by TopCount NXT (registered trademark) (PerkinElmer) after shaking for 30 minutes at room temperature. […]

human S1P1 (EDG-1), sequence (P21453 whole entry): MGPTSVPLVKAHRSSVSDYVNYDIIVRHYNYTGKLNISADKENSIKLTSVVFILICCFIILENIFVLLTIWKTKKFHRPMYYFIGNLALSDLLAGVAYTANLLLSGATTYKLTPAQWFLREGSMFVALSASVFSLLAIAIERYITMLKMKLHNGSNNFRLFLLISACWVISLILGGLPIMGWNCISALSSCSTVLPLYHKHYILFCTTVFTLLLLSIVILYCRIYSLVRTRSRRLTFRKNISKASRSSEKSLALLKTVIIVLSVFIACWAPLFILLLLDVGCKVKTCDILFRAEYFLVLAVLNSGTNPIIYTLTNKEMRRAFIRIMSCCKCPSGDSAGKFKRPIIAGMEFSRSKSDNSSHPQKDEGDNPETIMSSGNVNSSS

Row | Structure (SMILES) | pIC50
1 | Cc1cc(NC(C)c2ccc(C)c(CN3CC(C(=O)O)C3)c2)ccc1Cl (centres unmarked) [Comparative Example 1, 1-{5-[1-(4-Chloro-3-methylphenylamino)ethyl]-2-methylbenzyl}azetidine-3-carboxylic acid, reference compound] | 6.36
2 | Cc1cc(N(C)Cc2cccc(CN3CC(C(=O)O)C3)c2)ccc1Cl [Compound 1-2] | 8.12
3 | CCN(Cc1ccc(C)c(CN2CC(C(=O)O)C2)c1)c1ccc(Cl)c(C)c1 [Compound 2-1, 1-(5-{[(4-Chloro-3-methylphenyl)(ethyl)amino]methyl}-2-methylbenzyl)azetidine-3-carboxylic acid] | 8.28
4 | Cc1cc(N(C)Cc2ccc(C)c(CN3CC(C(=O)O)C3)c2)ccc1Cl [Compound 2-2] | 8.17
5 | Cc1cc(N(Cc2ccc(C)c(CN3CC(C(=O)O)C3)c2)C(C)C)ccc1Cl [Compound 2-3] | 8.55
6 | CCN(Cc1cccc(CN2CC(C(=O)O)C2)c1C)c1ccc(Cl)c(C)c1 [Compound 2-4] | 8.41
7 | Cc1cc(CN2CC(C(=O)O)C2)c2c(c1)C(N(C)c1ccc(Cl)c(C)c1)CC2 (centres unmarked) [Compound 2-9] | 7.65
8 | Cc1ccc2c(c1CN1CC(C(=O)O)C1)CCC2N(C)c1ccc(Cl)c(C(F)(F)F)c1 (centres unmarked) [Compound 2-10, 1-{1-[(4-Chloro-3-trifluoromethylphenyl)(methyl)amino]-5-methylindan-4-ylmethyl}azetidine-3-carboxylic acid] | 8.60
9 | CCN(Cc1ccc(C)c(CN2CC(C(=O)O)C2)c1C)c1ccc(Cl)c(C)c1 [Compound 2-11] | 8.96
10 | CCC(c1cccc(CN2CC(C(=O)O)C2)c1)N(CC)c1ccc(Cl)c(C)c1 (centres unmarked) [Compound 2-12] | 8.17
11 | Cc1cc(N(C)C(C)c2ccc(C)c(CN3CC(C(=O)O)C3)c2)ccc1Cl (centres unmarked) [Compound 2-13] | 7.67
12 | CCCN(c1ccc(Cl)c(C)c1)C(C)c1ccc(C)c(CN2CC(C(=O)O)C2)c1 (centres unmarked) [Compound 2-14, 1-(5-{1-[(4-Chloro-3-methylphenyl)(propyl)amino]ethyl}-2-methylbenzyl)-azetidine-3-carboxylic acid] | 8.77
13 | CCN(c1ccc(Cl)c(C)c1)C1CCc2c1ccc(F)c2CN1CC(C(=O)O)C1 (centres unmarked) [Compound 2-15, 1-{1-[(4-Chloro-3-methylphenyl)(ethyl)amino]-5-fluoroindan-4-ylmethyl}-azetidine-3-carboxylic acid] | 8.60
14 | CCN(c1ccc(Cl)c(C)c1)C1CCc2c(CN3CC(C(=O)O)C3)cc(F)cc21 (centres unmarked) [Compound 2-16] | 8.48
15 | Cc1cc(N(C)C2CCc3c(CN4CC(C(=O)O)C4)cccc32)ccc1Cl (centres unmarked) [Compound 2-17] | 7.56
16 | CCN(c1ccc(Cl)c(C)c1)C1CCc2c1ccc(OC)c2CN1CC(C(=O)O)C1 (centres unmarked) [Compound 2-18] | 8.33
17 | CCN(c1ccc(Cl)c(C)c1)C1CCc2c1ccc(C)c2CN1CC(C(=O)O)C1 (centres unmarked) [Compound 2-21, 1-{1-[(4-Chloro-3-methylphenyl)(ethyl)amino]-5-methylindan-4-ylmethyl}-azetidine-3-carboxylic acid] | 8.72
18 | CCN(c1ccc(Cl)c(C)c1)C1CCc2c(CN3CC(C(=O)O)C3)cc(C)cc21 (centres unmarked) [Compound 2-22] | 8.30
19 | CCN(c1ccc(Cl)c(C(F)(F)F)c1)C1CCc2c(CN3CC(C(=O)O)C3)cccc21 (centres unmarked) [Compound 2-24] | 8.43

Row | Structure (SMILES) | pIC50
20 | Cc1ccc(C(C)N(C)c2ccc(Cl)c(C(F)(F)F)c2)cc1CN1CC(C(=O)O)C1 (centres unmarked) [Compound 2-25, 1-(5-{1-[(4-Chloro-3-trifluommethylphenyl)(methyl)amino]ethyl}-2-methylbenzyl)azetidine-3-carboxylic acid] | 8.17
21 | CCN(c1ccc(Cl)c(C)c1)C(C)c1cc(Cl)cc(CN2CC(C(=O)O)C2)c1 (centres unmarked) [Compound 2-29] | 8.92
22 | CCN(c1ccc(Cl)c(C)c1)C(C)c1ccc(OC)c(CN2CC(C(=O)O)C2)c1 (centres unmarked) [Compound 2-30] | 8.16
23 | CCN(c1ccc(Cl)c(C)c1)C(C)c1ccc(F)c(CN2CC(C(=O)O)C2)c1 (centres unmarked) [Compound 2-31, 1-(5-{1-[(4-Chloro-3-methylphenyl)(ethyl)amino]ethyl}-2-fluorobenzyl)-azetidine-3-carboxylic acid] | 8.24
24 | CCN(c1ccc(Cl)c(C)c1)C(C)c1ccc(Cl)c(CN2CC(C(=O)O)C2)c1 (centres unmarked) [Compound 2-32, 1-(2-Chloro-5-{1-[(4-chloro-3-methylphenyl)(ethyl)amino]ethyl}benzyl)-azetidine-3-carboxylic acid] | 8.96
25 | CC(c1ccc(Cl)c(CN2CC(C(=O)O)C2)c1)N(C)c1ccc(Cl)c(C(F)(F)F)c1 (centres unmarked) [Compound 2-33, 1-(2-Chloro-5-{1-[(4-chloro-3-trifluoromethylphenyl)(methyl)amino]-ethyl}benzyl)azetidine-3-carboxylic acid] | 8.11
26 | CCN(c1ccc(Cl)c(C(F)(F)F)c1)C(C)c1ccc(Cl)c(CN2CC(C(=O)O)C2)c1 (centres unmarked) [Compound 2-34, 1-(2-Chloro-5-{1-[(4-chloro-3-trifluoromethylphenyl)(ethyl)amino]ethyl}-benzyl)azetidine-3-carboxylic acid] | 8.82
27 | Cc1ccc(C(C)N(CCO)c2ccc(Cl)c(C(F)(F)F)c2)cc1CN1CC(C(=O)O)C1 (centres unmarked) [Compound 2-37] | 8.07
28 | Cc1ccc2c(c1CN1CC(C(=O)O)C1)CCC2N(CCO)c1ccc(Cl)c(C(F)(F)F)c1 (centres unmarked) [Compound 2-39] | 8.47
29 | CCN(c1ccc(Cl)c(C(F)(F)F)c1)C(C)c1ccc(C(F)(F)F)c(CN2CC(C(=O)O)C2)c1 (centres unmarked) [Compound 2-41, 1-(5-{1-[(4-Chloro-3-trifluoromethylphenyl)(ethyl)amino]ethyl}-2-trifluoromethylbenzyl)azetidine-3-carboxylic acid] | 8.72
30 | CCN(c1ccc(Cl)c(C)c1)C(C)c1ccc(C(F)(F)F)c(CN2CC(C(=O)O)C2)c1 (centres unmarked) [Compound 2-43, 1-(5-{1-[(4-Chloro-3-methylphenyl)(ethyl)amino]ethyl}-2-trifluoromethylbenzyl)azetidine-3-carboxylic acid] | 8.46
31 | Cc1ccc(C(C)N(C)c2ccc(C#N)c(C(F)(F)F)c2)cc1CN1CC(C(=O)O)C1 (centres unmarked) [Compound 2-44] | 8.05
32 | CCC(c1ccc(C)c(CN2CC(C(=O)O)C2)c1)N(CC)c1ccc(Cl)c(C(F)(F)F)c1 (centres unmarked) [Compound 2-45, 1-(5-{1-[(4-Chloro-3-trifluoromethylphenyl)(ethyl)amino]propyl}-2-methylbenzyl)azetidine-3-carboxylic acid] | 9.10
33 | CCC(c1ccc(C)c(CN2CC(C(=O)O)C2)c1)N(CC)c1ccc(Cl)c(C)c1 (centres unmarked) [Compound 2-46, 1-(5-{1-[(4-Chloro-3-methylphenyl)(ethyl)amino]propyl}-2-methylbenzyl)-azetidine-3-carboxylic acid] | 8.72
34 | CCN(c1ccc(Cl)cc1)C(C)c1ccc(C)c(CN2CC(C(=O)O)C2)c1 (centres unmarked) [Compound 2-47] | 8.74
35 | CCN(c1cccc(Cl)c1)C(C)c1ccc(C)c(CN2CC(C(=O)O)C2)c1 (centres unmarked) [Compound 2-49] | 9.05
36 | CCN(Cc1cccc(CN2CC(C(=O)O)C2)c1)c1ccc(Cl)c(C)c1 [Compound 3-1, 1-(3-{[(4-Chloro-3-methylphenyl)(ethyl)amino]methyl}benzyl)azetidine-3-carboxylic acid] | 8.05
37 | Cc1cc(N(Cc2cccc(CN3CC(C(=O)O)C3)c2)C(C)C)ccc1Cl [Compound 3-4] | 7.82
38 | CCN(c1ccc(Cl)c(C)c1)C1CCCc2c(CN3CC(C(=O)O)C3)cccc21 (centres unmarked) [Compound 3-7] | 7.89
